# Laboratory results taken from US6025358A, “Double prodrugs of potent GP IIb/IIIa antagonists” (G. D. Searle & Co., priority 1999, dated 2000).
# Counter-ions that a name gives are not always drawn.
# Test system: platelet aggregation
# Assay: Ex vivo screening of oral GP IIb/IIIa inhibitors: inhibition of collagen-induced platelet aggregation in PRP after oral dosing in beagles
# Details: Canis lupus familiaris, Platelet, beagle dogs, 5 mpk, n = 2, 32 hours post-dosing, collagen agonist, read-out: Percent inhibition of platelet aggregation at 32 hour post-dosing
# Method: Beagles (8-13 kg, various sources) of either sex are dosed orally with compound in a gelatin capsule. Blood samples are drawn from the cephalic vein using a 23 ga infusion butterfly. Samples for platelet aggregation and drug concentration are taken prior to dosing and 0.5, 1, 2, 3, 5, 7 and 10 hours after dosing and periodically on subsequent days until inhibition of platelet aggregation is less than 30%. Animals are fasted, with ad lib access to water, overnight prior to dosing. For measurement of plasma concentration blood is drawn into a 3 ml tube containing 45 USP units of Na Heparin. Blood is centrifuged at 1700×g for 10 minutes, plasma is aspirated and frozen at -20° C. until analyzed by HPLC. For measurement of platelet aggregation, blood is drawn into 2 2.0 ml tubes containing 0.2 ml of 3.8% Na Citrate. Blood is centrifuged at 250×g for 6 minutes and the platelet rich plasma (PRP) is aspirated. The remaining blood is centrifuged at 1700×g for 10 minutes and platelet poor plasma (PPP) is aspirated. Platelet aggregation is performed in a Bio-Data PAP-4 aggregometer (Bio-Data Corp., Havertown, Pa.) using collagen (100 μg/ml final concentration; Helena Laboratories, Beaumont, Tex.) as the agonist. Briefly, baseline (100% aggregation) is set using PPP; PRP is incubated at 37° C. for one minute without stirring and one minute with stirring, agonist is added and aggregation is allowed to develop for 4 minutes. Percent aggregation post-dosing is compared to percent aggregation pre-dosing to determine percent inhibition.
# Percent inhibition of platelet aggregation at 32 hour post-dosing in
# beagle dogs (5 mpk, n = 2)
row,SMILES,inhibition in vivo at 5 mg/kg
1,"CC(C)COC(=O)CCNC(=O)N[C@H]1CCN(c2ccc(C(N)=NO)cc2)C1=O [1(d), N-[[[(3S)-1-[4-[(hydroxyamino)iminomethyl]phenyl]-2-oxo-3-pyrrolidinyl]amino]carbonyl]-β-alanine 2-methylpropyl ester monohydrochloride]",45%
2,"CCOC(=O)CCNC(=O)N[C@H]1CCN(c2ccc(C(=N)NOC(=O)N(C)CCCN(C)C)cc2)C1=O [3(g), N-[[[(3S)-1-[4-(1-imino-5,9-dimethyl-4-oxo-3-oxa-2,5,9-triazadec-1-yl)phenyl]-2-oxo-3-pyrrolidinyl]amino]carbonyl]-β-alanine ethyl ester dihydrochloride]",69%
3,"COC(=O)CCNC(=O)N[C@H]1CCN(c2ccc(C(=N)NOC(=O)N3CCN(C)CC3)cc2)C1=O [Example 3, N-[[[(3S)-1-[4-[imino[[[(4-methyl-1-piperazinyl)-carbonyl]oxy]amino]-methyl]phenyl]-2-oxo-3-pyrrolidinyl]amino]carbonyl]-β-alanine methyl ester]",66%
4,"CCOC(=O)CCNC(=O)N[C@H]1CCN(c2ccc(C(N)=NO)cc2)C1=O [Example 1, N-[[[(3S)-1-[4-[(hydroxyamino)iminomethyl]phenyl]-2-oxo-3-pyrrolidinyl]amino]carbonyl]-β-alanine ethyl ester monohydrochloride]",95%
5,"CC(C)OC(=O)CCNC(=O)N[C@H]1CCN(c2ccc(C(=N)NOC(=O)N3CCN(C)CC3)cc2)C1=O [3(h), N-[[[(3S)-1-[4-[imino[[[(4-methyl-1-piperazinyl)carbonyl]oxy]amino]methyl]phenyl]-2-oxo-3-pyrrolidinyl]amino]carbonyl]-β-alanine 1-methylethyl ester dihydrochloride]",56%
6,"CCOC(=O)CCNC(=O)N[C@H]1CCN(c2ccc(C(N)=NOC(=O)OCC)cc2)C1=O [Example 9, N-[[[(3S)-1-[4-[[[(ethoxycarbonyl)oxy]amino]iminomethyl]phenyl]-2-oxo-3-pyrrolidinyl]amino]carbonyl]-β-alanine ethyl ester]",90%
7,"CCCOC(=O)CCNC(=O)N[C@H]1CCN(c2ccc(C(=N)NOC(=O)N(C)CCN(C)C)cc2)C1=O [3(m), N-[[[(3S)-1-[4-(1-imino-5,8-dimethyl-4-oxo-3-oxa-2,5,8-triazanon-1-yl)phenyl]-2-oxo-3-pyrrolidinyl]amino]carbonyl]-β-alanine propyl ester dihydrochloride]",80%

# Same assay, conditions: beagle dogs, 5 mpk, n = 2, 10 hours post-dosing, collagen agonist
row,SMILES,% inhibition of platelet aggregation @ 10 hours
1,"NC(=O)ON=C(N)c1ccc(N2CC[C@H](NC(=O)NCCC(=O)O)C2=O)cc1 [6(d), N-[[[(3S)-1-[4-[[[(aminocarbonyl)oxy]amino]iminomethyl]phenyl]-2-oxo-3-pyrrolidinyl]amino]carbonyl]-β-alanine]",15%
2,"N=C(N)c1ccc(N2CC[C@H](NC(=O)NCCC(=O)O)C2=O)cc1 [6(e), N-[[[(3S)-1-[4-(Aminoiminomethyl)phenyl]-2-oxo-3-pyrrolidinyl]amino]-carbonyl]-β-alanine trifluoroacetate, reference compound]",28%

# Same assay, conditions: beagle dogs, 5 mpk, n = 2, 26 hours post-dosing, collagen agonist
row,SMILES,% inhibition of platelet aggregation @ 26 hours
1,"CCOC(=O)CCNC(=O)N[C@H]1CCN(c2ccc(C(=N)NOC(=O)N3CCN(C)CC3)cc2)C1=O.Cl.Cl [3(d), N-[[[(3S)-1-[4-[imino[[[(4-methyl-1-piperazinyl)carbonyl]oxy]amino]methyl]phenyl]-2-oxo-3-pyrrolidinyl]amino]carbonyl]-β-alanine ethyl ester dihydrochloride]",88%
2,"COC(=O)CCNC(=O)N[C@H]1CCN(c2ccc(C(=N)NOC(=O)N(C)CCN(C)C)cc2)C1=O.Cl [3(a), N-[[[(3S)-1-[4-(1-imino-5,8-dimethyl-4-oxo-3-oxa-2,5,8-triazanon-1-yl)phenyl]-2-oxo-3-pyrrolidinyl]amino]carbonyl]-β-alanine methyl ester monohydrochloride]",33%
